# Like-named read-outs stand apart in the source and are kept apart here.
# Experiments:
# [1] = Basic compatibility of Ag5IO6 with gels (visual, pH, UV-Vis, XRD); format: physicochemical
# Description: The purpose of this study was to determine whether Ag5IO6 could be incorporated into various gels without reacting with the gels. Ag5IO6 powder was combined with various commercially available hydrogels and then visually examined for stability, along with UV-Vis analysis and x-ray diffraction.
# Gels selected: Guardian Laboratories AquaThik™ (Xanthan gum, PEG-180; 3% in water); Lubrajel® RC (Water, glycerin, propylene glycol, polyacrylic acid, sodium polyacrylate, 0.18% methylparaben, 0.02% propylparaben), and Lubrajel® PF (Glycerin, glyceryl acrylate/acrylic acid copolymer); SteriLub™ (unknown composition); BASF Pluronic® F127+Carbowax 600 (Polyoxyethylene-polyoxypropylene block copolymer; 18% Pluronic, 15% Carbowax 600); ConvaTec DuoDerm® Hydroactive® Sterile Gel (pectin, sodium carboxymethylcellulose); MoInlycke Normlgel® (0.9% NaCl, H2O, xanthan gum); Smith & Nephew IntraSite Gel (Water>60%, propylene glycol 10-30%, absorbent polymer<10%-crilanomer, a Graft-T starch copolymer) and SoloSite Gel (Water>60%, glycerol 10-30%, absorbent polymer<10%, allantoin<1%, antiseptic/preservative<1%); carboxymethylcellulose gel (4% in water); Cremophor; and Gelrite (0.4% in water).
# For each gel, the samples were mixed in a small glass container with fine Ag5IO6 powder to generate 500 ppm Ag5IO6 in the gels. Each of the above formulations were examined for visual signs of instability, such as dramatic viscosity changes, color changes, release of gas, deposition of precipitate that appears different from the original Ag5IO6, and temperature change during stirring (heat release).
# UV-Vis Analysis: Samples were diluted to 1/10th their original concentration. For UV-Vis blanks, control gels (with no Ag5IO6) were prepared as described for each gel, and diluted to 1/10th as well. UV-Vis measurements were performed between 190-500 nm.
# pHs of the gel formulations were measured with and without the Ag5IO6 added using pH indicator strips.
# [2] = Ag5IO6 solubility in water and saline, OECD Method (105) flask; format: physicochemical
# Description: The purpose of this study was to develop a basic understanding of the solubility (and stability) of Ag5IO6 in pure water and 0.9% (physiological saline), following OECD Method (105)—flask.
# [3] = Ag5IO6 stability in solvents (isothermal TAM III heat flow, XRD); format: physicochemical
# Protocol: The purpose of this study was to determine whether or not Ag5IO6 interacts with methanol, tetrahydrofuran, acetone, and acetonitrile. […] of Ag5IO6 was placed in a vial, 2 mL of the solvent was added, and the vial was placed in a TAM III for an isothermal run at room temperature for >24 h with solvent only as the reference. The heat flow was measured. After the run was complete, the solvents were allowed to flash off and the solids collected were submitted to XRD. Samples exposed following essentially the same method for only 18 h were also submitted for XRD
# [4] = for Grain size: 90° C.
smiles,measurement,setting,value
"[Ag+].[Ag+].[Ag+].[Ag+].[Ag+].[O-][I+]([O-])([O-])([O-])([O-])[O-] [Ag5IO6, pentasilver hexaoxoiodate]",Ag5IO6 purity by XRD after mixing into gel,[1]; 500 ppm Ag5IO6 in AquaThik gel,100%
same,XRD: reaction of Ag5IO6 with gel,[1]; 500 ppm Ag5IO6 in Cremophor gel,no Ag5IO6 detected by the XRD analysis
same,XRD: reaction of Ag5IO6 with gel,[1]; 500 ppm Ag5IO6 in DuoDerm hydrogel,remained pure
same,XRD: reaction of Ag5IO6 with gel,[1]; 500 ppm Ag5IO6 in Gelrite (0.4% in water),did not react
same,XRD: reaction of Ag5IO6 with gel,[1]; 500 ppm Ag5IO6 in IntraSite gel,no reaction products
same,XRD: reaction of Ag5IO6 with gel,[1]; 500 ppm Ag5IO6 in Lubrajel PF,had not reacted
same,XRD: reaction of Ag5IO6 with gel,[1]; 500 ppm Ag5IO6 in Lubrajel RC,did not react
same,XRD: reaction of Ag5IO6 with gel,"[1]; 500 ppm Ag5IO6 in Normlgel (0.9% NaCl), AgCl found",incompatible under these conditions with this gel for long term storage
same,Visual signs of instability after addition of Ag5IO6,"[1]; 500 ppm Ag5IO6 in Pluronic F127 plus Carbowax 600, no XRD",undesirable physical changes in the gel
same,XRD: reaction of Ag5IO6 with gel,[1]; 500 ppm Ag5IO6 in SoloSite gel,no reaction products
same,Ag5IO6 purity by XRD after mixing into gel,[1]; 500 ppm Ag5IO6 in SteriLub gel,100%
same,XRD: reaction of Ag5IO6 with gel,[1]; 500 ppm Ag5IO6 in carboxymethylcellulose gel (4% in water),not reactive
same,Solubility,[2]; ddH2O,0.02441 ± 0.00087 mg/mL
same,pH of solution,[2]; in ddH2O,8
same,Solid material converted to Ag metal (XRD),"[2]; in ddH2O, end of experiment",0.1%
same,Solid material remaining as Ag5IO6 (XRD),"[2]; in ddH2O, end of experiment",approximately 99.9%
same,pH of solution,[2]; in saline,10
same,Solid material converted to AgCl (XRD),"[2]; in saline, end of experiment",approximately 25%
same,Solubility,[2]; saline (0.9%),0.00061 ± 5e-05 mg/mL
same,Rank of solubility in organic solvents,[3],methanol>>THF>acetone>acetonitrile
same,Onset of significant reaction,"[3]; acetonitrile (slower onset), room temperature",about 56 h
same,Time blended without substantial reaction,"[3]; all solvents (methanol, tetrahydrofuran, acetone, acetonitrile), room temperature",< 18 h
same,Onset of significant reaction,"[3]; methanol, room temperature",about 33 h
same,Onset of significant reaction,"[3]; solvent printed as THE, room temperature",about 56 h
same,Grain size,[4]; Day 0,14 Å
same,Grain size,[4]; Day 14,62 Å
same,Grain size,[4]; Day 28,94 Å
same,Composition remaining Ag5IO6,[4]; 672 h,100%
same,Shelf life,"[4]; room temperature, extrapolated from accelerated storage",> 2 years

# Source: patent US12357723B2, “Antimicrobial silver iodate” (Innovotech, Inc., priority 2012, dated 2025)
